# Several values for one entry are separate records, joined by “and”; a condition that tells them apart may be missing. Equal values may be shown once. Read-outs that look alike come from different tables or passages of the source.
# How the values were obtained:
# [1] = target: T1, CDK12–cyclin K and DDB1 (Homo sapiens, UniProt Q16531+Q9NYV4, K965R); test: TR-FRET ternary complex formation assay (compound titration); type: binding; conditions: for TR-FRET signal at compound concentration: replicate titrations
# T1 construct: His6–CDK12 (a.a. 713–1,052); full-length or beta-propeller B domain deletion (ΔBPB: a.a. 396–705 deleted) constructs of His6–DDB1ΔBPB, StrepII–Avi–DDB1, or His6–Spy–DDB1; made in house; host or cells: Trichoplusia ni High Five insect cells (baculovirus)
# Outline: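 Delayed (70 μs) time-resolved read; FRET computed as 520 nm over 490 nm emission.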
# [2] = tested on: cyclin K–eGFP degradation reporter; test: Cyclin K reporter stability analysis (dual-color cyclin K–eGFP reporter); type: cell-based, human
# Outline: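 Cells (HEK293T–Cas9, reporter-expressing) at 1 × 10^6 ml^−1; 5 h compound or DMSO; flow cytometry; gMFI eGFP ÷ mCherry on round mCherry-positive events; normalized to 3 DMSO controls.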
# [3] = tested on: HEK293T cells; test: Drug sensitivity assay (CellTiter-Glo viability) with or without MLN4924 pretreatment; type: cell-based, human; conditions: for EC50: Homo sapiens, HEK-293T, HEK293T viability, 72 h, compound alone, read-out: Cellular assays EC50; for EC50 / Toxicity rescue: Supplementary Table 2; for Toxicity rescue: MLN4924-mediated cytotoxicity rescue, 10 µM used where n.d.
# Outline: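 Viability of HEK293T–Cas9 cells was compared after 3-day drug treatment with or without 100 nM MLN4924 pretreatment (2 h, versus DMSO). Values are CellTiter-Glo signals relative to DMSO controls.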
# [4] = compound concentration 0.468 nM
# [5] = compound concentration 7.92001 nM
# [6] = compound concentration 15.84 nM
# [7] = compound concentration 30.96 nM
# [8] = compound concentration 62.6401 nM
# [9] = compound concentration 125.28 nM
# [10] = compound concentration 244.8 nM
# [11] = compound concentration 993.601 nM
# [12] = compound concentration 2001.6 nM
# [13] = in vitro complex formation, 50 nM CDK12–cyclin K, 100 nM DDB1, text and figures, read-out: TR-FRET EC50
# [14] = sheet MOESM7, read-out: log TR-FRET EC50 (converted)
# [15] = Supplementary Table 2, read-out: TR-FRET EC50 TR-FRET
# [16] = Supplementary Table 2, HEK293T cycK-eGFP reporter, 5 h, read-out: Cellular assays DC50
# T1 sequence (Q9NYV4 713-1052 K965R): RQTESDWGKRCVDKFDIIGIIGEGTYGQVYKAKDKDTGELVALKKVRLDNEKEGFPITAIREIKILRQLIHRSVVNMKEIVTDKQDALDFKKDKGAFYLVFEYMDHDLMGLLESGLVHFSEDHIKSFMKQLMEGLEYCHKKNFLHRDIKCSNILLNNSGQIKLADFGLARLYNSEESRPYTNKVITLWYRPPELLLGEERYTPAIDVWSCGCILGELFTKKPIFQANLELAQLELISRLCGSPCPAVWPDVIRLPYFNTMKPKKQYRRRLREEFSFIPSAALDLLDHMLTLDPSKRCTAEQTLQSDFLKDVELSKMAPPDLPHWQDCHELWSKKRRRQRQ
# T1 sequence (O75909 1-267 partner): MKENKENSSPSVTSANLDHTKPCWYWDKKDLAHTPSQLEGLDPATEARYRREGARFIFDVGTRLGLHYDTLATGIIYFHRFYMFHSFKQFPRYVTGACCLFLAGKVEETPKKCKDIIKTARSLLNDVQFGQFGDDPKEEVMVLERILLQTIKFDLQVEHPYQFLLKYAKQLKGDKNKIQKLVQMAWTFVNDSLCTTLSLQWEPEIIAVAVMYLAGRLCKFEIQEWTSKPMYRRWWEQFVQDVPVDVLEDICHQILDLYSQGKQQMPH
# T1 sequence (Q16531 whole entry): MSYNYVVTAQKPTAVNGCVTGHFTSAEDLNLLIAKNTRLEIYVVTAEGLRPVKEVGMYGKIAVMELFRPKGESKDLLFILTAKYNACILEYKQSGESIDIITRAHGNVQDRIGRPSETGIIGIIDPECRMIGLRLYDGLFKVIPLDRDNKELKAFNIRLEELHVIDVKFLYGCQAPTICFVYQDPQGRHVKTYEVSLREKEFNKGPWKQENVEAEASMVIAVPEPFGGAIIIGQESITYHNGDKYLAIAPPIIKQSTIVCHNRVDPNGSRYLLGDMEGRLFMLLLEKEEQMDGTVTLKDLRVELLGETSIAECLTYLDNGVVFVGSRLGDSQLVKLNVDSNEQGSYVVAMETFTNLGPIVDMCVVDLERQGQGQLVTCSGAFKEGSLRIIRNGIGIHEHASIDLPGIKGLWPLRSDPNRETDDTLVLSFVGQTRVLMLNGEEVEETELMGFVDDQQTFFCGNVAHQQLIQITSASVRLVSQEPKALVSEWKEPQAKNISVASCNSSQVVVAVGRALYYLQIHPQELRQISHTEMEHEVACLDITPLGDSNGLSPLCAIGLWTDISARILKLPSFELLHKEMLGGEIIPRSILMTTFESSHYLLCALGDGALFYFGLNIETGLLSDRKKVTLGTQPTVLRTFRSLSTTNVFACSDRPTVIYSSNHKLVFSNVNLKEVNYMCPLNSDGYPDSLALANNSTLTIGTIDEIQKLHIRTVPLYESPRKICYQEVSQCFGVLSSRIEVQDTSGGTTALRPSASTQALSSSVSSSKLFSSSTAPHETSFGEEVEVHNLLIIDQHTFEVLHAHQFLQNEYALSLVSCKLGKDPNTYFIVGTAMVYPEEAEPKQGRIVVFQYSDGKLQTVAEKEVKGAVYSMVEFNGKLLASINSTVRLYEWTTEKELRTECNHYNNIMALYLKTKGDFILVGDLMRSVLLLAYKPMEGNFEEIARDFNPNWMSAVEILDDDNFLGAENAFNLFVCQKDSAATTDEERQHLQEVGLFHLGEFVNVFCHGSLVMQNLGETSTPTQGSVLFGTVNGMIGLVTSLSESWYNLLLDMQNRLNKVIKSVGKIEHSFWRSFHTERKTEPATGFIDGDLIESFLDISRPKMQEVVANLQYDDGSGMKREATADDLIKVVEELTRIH
structure (smiles),measurement,setting,value
CC[C@H](CO)Nc1nc(NCCCc2cccc(F)c2)c2ncn(C(C)C)c2n1 [DS29],TR-FRET signal at compound concentration,[1]; [4],0.256 and 0.2516
same,TR-FRET signal at compound concentration,[1]; compound concentration 2.16 nM,0.3133 and 0.3182
same,TR-FRET signal at compound concentration,[1]; compound concentration 3.6 nM,0.4047 and 0.4311
same,TR-FRET signal at compound concentration,[1]; [5],0.6615 and 0.6381
same,TR-FRET signal at compound concentration,[1]; [6],1.045 and 0.9914
same,TR-FRET signal at compound concentration,[1]; [7],1.635 and 1.536
same,TR-FRET signal at compound concentration,[1]; [8],2.287 and 2.228
same,TR-FRET signal at compound concentration,[1]; [9],2.838 and 2.826
same,TR-FRET signal at compound concentration,[1]; [10],3.127 and 3.261
same,TR-FRET signal at compound concentration,[1]; [11],3.39 and 3.672
same,TR-FRET signal at compound concentration,[1]; [12],3.566 and 3.699
same,EC50,[1]; [13],46 ± 2 nM
same,EC50,[1]; [14],45.7 nM
same,EC50,"[1]; source data sheet correlations, read-out: TR-FRET EC50",45.7 nM
same,DC50,"[2]; source data sheet correlations, read-out: DC50",253 nM
same,EC50,[3],452 nM
same,% MLN4924 rescue,[3]; PCA input,669%
same,Toxicity rescue,[3],713%
CC[C@H](CO)Nc1nc(NCCCc2ccccc2)c2ncn(C(C)C)c2n1 [DS11],EC50,[1]; [15],56.8 nM
same,TR-FRET signal,[1]; [4],0.241 and 0.2489
same,"TR-FRET signal, individual replicate",[1]; [4],0.241 and 0.2489
same,TR-FRET signal at compound concentration,[1]; [4],0.241 and 0.2489
same,TR-FRET signal,[1]; compound concentration 2.16 nM,0.2983 and 0.2991
same,"TR-FRET signal, individual replicate",[1]; compound concentration 2.16 nM,0.2983 and 0.2991
same,TR-FRET signal at compound concentration,[1]; compound concentration 2.16 nM,0.2983 and 0.2991
same,TR-FRET signal,[1]; compound concentration 3.6 nM,0.374 and 0.3698
same,"TR-FRET signal, individual replicate",[1]; compound concentration 3.6 nM,0.374 and 0.3698
same,TR-FRET signal at compound concentration,[1]; compound concentration 3.6 nM,0.374 and 0.3698
same,TR-FRET signal,[1]; [5],0.5495 and 0.5492
same,"TR-FRET signal, individual replicate",[1]; [5],0.5495 and 0.5492
same,TR-FRET signal at compound concentration,[1]; [5],0.5495 and 0.5492
same,TR-FRET signal,[1]; [6],0.8302 and 0.8222
same,"TR-FRET signal, individual replicate",[1]; [6],0.8302 and 0.8222
same,TR-FRET signal at compound concentration,[1]; [6],0.8302 and 0.8222
same,TR-FRET signal,[1]; [7],1.2679 and 1.278
same,"TR-FRET signal, individual replicate",[1]; [7],1.2679 and 1.278
same,TR-FRET signal at compound concentration,[1]; [7],1.2679 and 1.278
same,TR-FRET signal,[1]; [8],1.798 and 1.8918
same,"TR-FRET signal, individual replicate",[1]; [8],1.798 and 1.8918
same,TR-FRET signal at compound concentration,[1]; [8],1.798 and 1.8918
same,TR-FRET signal,[1]; [9],2.382 and 2.496
same,"TR-FRET signal, individual replicate",[1]; [9],2.382 and 2.496
same,TR-FRET signal at compound concentration,[1]; [9],2.382 and 2.496
same,TR-FRET signal,[1]; [10],2.742 and 2.9079
same,"TR-FRET signal, individual replicate",[1]; [10],2.742 and 2.9079
same,TR-FRET signal at compound concentration,[1]; [10],2.742 and 2.9079
same,TR-FRET signal,[1]; [11],3.1224 and 3.3313
same,"TR-FRET signal, individual replicate",[1]; [11],3.1224 and 3.3313
same,TR-FRET signal at compound concentration,[1]; [11],3.1224 and 3.3313
same,TR-FRET signal,[1]; [12],3.176 and 3.283
same,"TR-FRET signal, individual replicate",[1]; [12],3.176 and 3.283
same,TR-FRET signal at compound concentration,[1]; [12],3.176 and 3.283
same,EC50,[1]; [13],57 ± 3 nM
same,EC50,[1]; [14],56.8 nM
same,DC50,[2]; [16],> 10000 nM
same,EC50,[3],> 10000 nM
same,Toxicity rescue,[3],0%
CC[C@H](CO)Nc1nc(NCCCc2ccco2)c2ncn(C(C)C)c2n1 [DS34],EC50,[1]; [15],603 nM
same,TR-FRET signal at compound concentration,[1]; compound concentration 4.68 nM,0.2091 and 0.2292
same,TR-FRET signal at compound concentration,[1]; compound concentration 21.6 nM,0.229 and 0.2555
same,TR-FRET signal at compound concentration,[1]; compound concentration 36 nM,0.2532 and 0.2765
same,TR-FRET signal at compound concentration,[1]; compound concentration 79.2001 nM,0.311 and 0.3352
same,TR-FRET signal at compound concentration,[1]; compound concentration 158.4 nM,0.3881 and 0.4084
same,TR-FRET signal at compound concentration,[1]; compound concentration 309.6 nM,0.5012 and 0.4942
same,TR-FRET signal at compound concentration,[1]; compound concentration 626.401 nM,0.6373 and 0.6895
same,TR-FRET signal at compound concentration,[1]; compound concentration 1252.8 nM,0.7887 and 0.8649
same,TR-FRET signal at compound concentration,[1]; compound concentration 2448 nM,0.8803 and 0.974
same,TR-FRET signal at compound concentration,[1]; compound concentration 9936.01 nM,1.0289 and 1.143
same,TR-FRET signal at compound concentration,[1]; compound concentration 20016 nM,1.011 and 1.0565
same,EC50,[1]; [13],603 ± 62 nM
same,EC50,[1]; [14],603 nM
same,DC50,[2]; [16],> 10000 nM
same,EC50,[3],> 10000 nM
same,Toxicity rescue,[3],0%

# Reference: publication PMC10746543, “Design principles for cyclin K molecular glue degraders” (Nature Chemical Biology, 2023)
